Organism: Bos taurus
Assay: Inhibitory effect by measuring the ATP-dependent [Ca2+] uptake in membranes isolated from bovine cerebellum
Type: functional

Structure (SMILES) | IC50 (Bos taurus, Cerebellum) | IC50
C/C=C(\C)C(=O)O[C@H]1C(C)=C2[C@H]([C@@H]1OC(=O)CCCCCCC)[C@@](C)(OC(C)=O)C[C@H](OC(=O)CCC)[C@@]1(O)[C@H]2OC[C@@]1(C)O | 0.18 nM | –
CC=C(C)C(=O)O[C@H]1C(C)=C2[C@H]([C@@H]1OC(=O)CCCCCCC)[C@@](C)(OC(C)=O)C[C@H](OC(=O)CCC)[C@@]1(O)[C@H]2OC(=O)[C@@]1(C)O [THAPSIGARGIN] | 0.264 nM | –
C/C=C(/C)C(=O)O[C@H]1C(C)=C2[C@H]([C@@H]1OC(=O)CCCCCCC)[C@@](C)(OC(C)=O)C[C@H](OC(=O)CCC)[C@@]1(O)[C@H]2OC(=O)[C@@]1(C)O [THAPSIGARGIN] | – | 0.17 nM
